Source: patent US20230374015A1, “INHIBITORS OF FIBROBLAST GROWTH FACTOR RECEPTOR KINASES” (Kinnate Biopharma Inc., priority 2020, published 2023)

What was measured:
FGFR2 [1] = biological target: T1, FGFR2 (Homo sapiens, UniProt P21802); assay: FGFR2 Kinase Protocol - Condition 2 (Reaction Biology HotSpot radiometric kinase assay, no preincubation); format: biochemical; settings: poly[Glu:Tyr] (4:1) 0.2 mg/ml, ATP 100 microM, 2 hr room temperature
In short: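 Radiometric HotSpot format: FGFR2 (wildtype or V564F) with poly[Glu:Tyr] (4:1) at 0.2 mg/ml in HEPES pH 7.5 buffer with 1% DMSO; ATP plus [γ33P]ATP at 100 µM total, added without preincubation. Reactions ran 2 hr at room temperature, then filter-bound. IC50 from 10-dose, 3-fold series versus DMSO control.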

FGFR2 [2] = biological target: T1, FGFR2; assay: FGFR2 Kinase Protocol - Condition 1 (Reaction Biology HotSpot radiometric kinase assay); format: biochemical; settings: 20-min incubation of compound with kinase before ATP; poly[Glu:Tyr] (4:1) 0.2 mg/ml; ATP 100 micromolar; 2 hr room temperature
Procedure: Example 1: FGFR2 Kinase Protocol—Condition 1
The Reaction Biology HotSpot assay platform (http://www.reactionbiology.com) was used to measure kinase/inhibitor interactions as described previously (Anastassiadis et al., 2011). In brief, for each reaction, kinase and substrate were mixed in a buffer containing 20 mM HEPES (pH 7.5), 10 mM MgCl2, 1 mM EGTA, 0.02% Brij35, 0.02 mg/mL BSA, 0.1 mM Na3VO4, 2 mM DTT, and 1% DMSO. All compounds were in powder form and freshly solubilized in DMSO for assays. Compounds were then added to each reaction mixture via acoustic dispense using an ECHO 550 nanoliter dispenser. For Human FGFR2 wildtype testing, a peptide substrate, poly[Glu:Tyr] (4:1) was used to promote the reaction at a concentration of 0.2 mg/ml. For Human FGFR2 (V564F) testing, a peptide substrate, poly[Glu:Tyr] (4:1) was used to promote the reaction at a concentration of 0.2 mg/ml. ATP concentration for all assays was maintained at 100 micromolar. Compounds were tested in 10-dose IC50 mode with a 3-fold serial dilution. After a 20-min incubation, ATP (Sigma-Aldrich, St. Louis, MO 63178) and [g33P] ATP (specific activity 10 microCi/microliter) purchased at PerkinElmer (Boston, MA, 02118 Cat #BLU 003H250UC) were added at a final total concentration of […]. Reactions were carried out at room temperature for 2 hr and spotted onto P81 ion exchange cellulose chromatography paper (Reaction Biology). Filter paper was washed in 0.75% phosphoric acid to remove unincorporated ATP. The percent remaining kinase activity relative to a vehicle-containing (DMSO) kinase reaction was calculated for each kinase/inhibitor pair. IC50 values were calculated using Dotmatics Knowledge Solutions Studies curve fitting (Dotmatics, Bishops Stortford, UK, CM23).

T1 sequence (P21802 22-821): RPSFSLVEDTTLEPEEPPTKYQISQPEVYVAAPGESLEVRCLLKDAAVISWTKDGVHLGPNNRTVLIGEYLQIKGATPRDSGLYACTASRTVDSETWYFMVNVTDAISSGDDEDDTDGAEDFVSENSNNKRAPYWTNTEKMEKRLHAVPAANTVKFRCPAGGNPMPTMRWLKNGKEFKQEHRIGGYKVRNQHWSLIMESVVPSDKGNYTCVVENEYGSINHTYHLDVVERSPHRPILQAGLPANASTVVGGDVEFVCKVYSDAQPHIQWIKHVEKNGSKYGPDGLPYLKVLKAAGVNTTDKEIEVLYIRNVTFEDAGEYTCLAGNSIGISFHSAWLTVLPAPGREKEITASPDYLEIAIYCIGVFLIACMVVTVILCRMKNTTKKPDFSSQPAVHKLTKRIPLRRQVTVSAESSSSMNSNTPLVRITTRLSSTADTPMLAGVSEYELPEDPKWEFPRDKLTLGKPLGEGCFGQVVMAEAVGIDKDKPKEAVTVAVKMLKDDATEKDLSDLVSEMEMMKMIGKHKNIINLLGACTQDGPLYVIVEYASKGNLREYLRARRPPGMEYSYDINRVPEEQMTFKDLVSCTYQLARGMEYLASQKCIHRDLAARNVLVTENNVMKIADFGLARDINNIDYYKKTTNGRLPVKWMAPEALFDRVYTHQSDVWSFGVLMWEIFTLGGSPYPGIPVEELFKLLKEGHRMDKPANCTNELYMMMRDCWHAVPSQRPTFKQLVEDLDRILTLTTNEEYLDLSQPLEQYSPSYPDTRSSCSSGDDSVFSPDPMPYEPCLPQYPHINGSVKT

SMILES	IC50 (FGFR2 [1]) [µM]	IC50 (FGFR2 [2]) [µM]
C=CC(=O)N1C[C@@H](n2nc(C#Cc3ccc4c(c3)nc(C)n4C)c3c(N)ncnc32)C[C@@H]1COC [Example 3, 1-((2R,4S)-4-(4-amino-3-((1,2-dimethyl-1H-benzo[d]imidazol-5-yl)ethynyl)-1H-pyrazolo[3,4-d]pyrimidin-1-yl)-2-(methoxymethyl)pyrrolidin-1-yl)prop-2-en-1-one]	≤ 0.1	≤ 0.1
C=CC(=O)N1C[C@@H](n2nc(C#Cc3c(F)cc4c(nc(C)n4C)c3F)c3c(N)ncnc32)C[C@@H]1COC [Example 12, 1-((2R,4S)-4-(4-amino-3-((4,6-difluoro-1,2-dimethyl-1H-benzo[d]imidazol-5-yl)ethynyl)-1H-pyrazolo[3,4-d]pyrimidin-1-yl)-2-(methoxymethyl)pyrrolidin-1-yl)prop-2-en-1-one]	≤ 0.1	≤ 0.1
C=CC(=O)N1C[C@@H](n2nc(C#Cc3c(F)cc4c(nc(C)n4C)c3F)c3c(N)nccc32)C[C@@H]1COC [Example 16, 1-((2R,4S)-4-(4-amino-3-((4,6-difluoro-1,2-dimethyl-1H-benzo[d]imidazol-5-yl)ethynyl)-1H-pyrazolo[4,3-c]pyridin-1-yl)-2-(methoxymethyl)pyrrolidin-1-yl)prop-2-en-1-one]	≤ 0.1	≤ 0.1
C=CC(=O)N1C[C@@H](n2nc(C#Cc3ccc4c(c3)ncn4CC)c3c(N)nccc32)C[C@@H]1COC [Example 23, 1-((2R,4S)-4-(4-amino-3-((1-ethyl-1H-benzo[d]imidazol-5-yl)ethynyl)-1H-pyrazolo[4,3-c]pyridin-1-yl)-2-(methoxymethyl)pyrrolidin-1-yl)prop-2-en-1-one]		≤ 0.1
C=CC(=O)N1C[C@@H](n2nc(C#Cc3ccc4c(c3)ncn4C3CC3)c3c(N)nccc32)C[C@@H]1COC [Example 24, 1-((2R,4S)-4-(4-amino-3-((1-cyclopropyl-1H-benzo[d]imidazol-5-yl)ethynyl)-1H-pyrazolo[4,3-c]pyridin-1-yl)-2-(methoxymethyl)pyrrolidin-1-yl)prop-2-en-1-one]		≤ 0.1
C=CC(=O)N1C[C@@H](n2nc(C#Cc3ccc4c(c3)nc(C)n4C)c3c(N)nccc32)C[C@@H]1COC [Example 25, 1-((2R,4S)-4-(4-amino-3-((1,2-dimethyl-1H-benzo[d]imidazol-5-yl)ethynyl)-1H-pyrazolo[4,3-c]pyridin-1-yl)-2-(methoxymethyl)pyrrolidin-1-yl)prop-2-en-1-one]		≤ 0.1
C=CC(=O)N1C[C@@H](n2nc(C#Cc3c(F)cc4c(ncn4C)c3F)c3c(N)nccc32)C[C@@H]1COC [Example 26, 1-((2R,4S)-4-(4-amino-3-((4,6-difluoro-1-methyl-1H-benzo[d]imidazol-5-yl)ethynyl)-1H-pyrazolo[4,3-c]pyridin-1-yl)-2-(methoxymethyl)pyrrolidin-1-yl)prop-2-en-1-one]		≤ 0.1
C=CC(=O)N1C[C@@H](n2cc(C#Cc3ccc4c(c3)ncn4C)c3c(N)nccc32)C[C@@H]1COC [Example 27, 1-((2R,4S)-4-(4-amino-3-((1-methyl-1H-benzo[d]imidazol-5-yl)ethynyl)-1H-pyrrolo[3,2-c]pyridin-1-yl)-2-(methoxymethyl)pyrrolidin-1-yl)prop-2-en-1-one]		≤ 0.1
C=CC(=O)N1C[C@@H](n2cc(C#Cc3ccc4nc(C)n(C)c4c3)c3c(N)nccc32)C[C@@H]1COC [Example 28]	1 to 10	1 to 10
C=CC(=O)N1C[C@@H](n2cc(C#Cc3ccc4c(c3)nc(C)n4C)c3c(N)nccc32)C[C@@H]1COC [Example 29, 1-((2R,4S)-4-(4-amino-3-((1,2-dimethyl-1H-benzo[d]imidazol-5-yl)ethynyl)-1H-pyrrolo[3,2-c]pyridin-1-yl)-2-(methoxymethyl)pyrrolidin-1-yl)prop-2-en-1-one]	0.1 to 1	≤ 0.1
C=CC(=O)N1C[C@@H](n2cc(C#Cc3ccc4c(c3)ncn4C3CC3)c3c(N)nccc32)C[C@@H]1COC [Example 30, 1-((2R,4S)-4-(4-amino-3-((1-cyclopropyl-1H-benzo[d]imidazol-5-yl)ethynyl)-1H-pyrrolo[3,2-c]pyridin-1-yl)-2-(methoxymethyl)pyrrolidin-1-yl)prop-2-en-1-one]	0.1 to 1	≤ 0.1
C=CC(=O)N1C[C@@H](n2cc(C#Cc3ccc4c(c3)ncn4CC)c3c(N)nccc32)C[C@@H]1COC [Example 31, 1-((2R,4S)-4-(4-amino-3-((1-ethyl-1H-benzo[d]imidazol-5-yl)ethynyl)-1H-pyrrolo[3,2-c]pyridin-1-yl)-2-(methoxymethyl)pyrrolidin-1-yl)prop-2-en-1-one]	0.1 to 1	≤ 0.1
